Assay results: US10335409B2 (priority 2012, dated 2019)
Where two headings read alike, the source gives them in different places.

Experiments:
Type in all cases: cell-based, hepatitis C virus
[1] = test system: genotype 1b (Con1) stable HCV replicon in Huh-7-derived cells; experiment: Stable subgenomic HCV replicon EC50, genotype 1b (Renilla luciferase); settings: Hepatitis C virus, stable replicon genotype 1b, 72 h, read-out: EC50 1B RLUC
Description: (§1) Antiviral potency (EC50) was determined in both stable subgenomic HCV replicon cell lines and transient-transfected HCV replicon cells. The term half maximal effective concentration (EC50) refers to the concentration of a drug which induces a response halfway between the baseline and maximum after the exposure time specified below.
(§2) Stable subgenomic HCV replicons for genotype 1a, 1b, 2a, 3a, and 4a were established in Huh-7-derived cells as described by Lohmann et al (Lohmann V, Korner F, Koch J, et al Replication of subgenomic hepatitis C virus RNAs in a hepatoma cell line. Science 1999; 285:119-3) Each stable cell line contains a bicistronic HCV replicon that encodes a humanized Renilla luciferase (hRLuc) reporter gene fused to a selectable neomycin-resistance gene, followed by an EMCV IRES and the NS3-NS5B coding region of HCV. […] Luciferase activity was measured as a marker for intracellular HCV replication levels.
(§3) The genotype 1a stable replicon was derived from the H77 HCV strain and contained adaptive mutations P1496L and S2204I. The genotype 1b stable replicon was derived from the Con1 HCV strain and contained adaptive mutations E1202G, T1280I and K1846T. […] The genotype 3a stable replicon was derived from the S52 HCV strain and contained adaptive mutations P1121L, A1198T and S2210I (equivalent to S2204I in genotype 1). The genotype 4a stable replicon was derived from the ED43 HCV strain and contained adaptive mutations Q1691R and S2204I. All replicon cell lines were propagated in Huh-7-derived cells and maintained in Dulbecco's modified Eagle's Medium (DMEM) supplemented with 10% fetal bovine serum (FBS) and 0.5 mg/mL G418.
(§4) To perform EC50 assays, cells from each HCV replicon were dispensed into 384-well plates. Compounds were dissolved in DMSO at a concentration of 10 mM and diluted in DMSO using an automated pipetting instrument. Three-fold serially diluted compounds were directly added to the cells using an automated instrument. […] Seventy-two hours later, cells were lysed and Renilla luciferase activity were quantified as recommended by the manufacturer (Promega-Madison, Wis.). Non-linear regression was performed to calculate EC50 values.

[2] = test system: genotype 1a (H77) stable HCV replicon in Huh-7-derived cells; experiment: Stable subgenomic HCV replicon EC50, genotype 1a (Renilla luciferase); settings: Hepatitis C virus, stable replicon genotype 1a, 72 h, read-out: EC50 1A RLUC
Description: as §1, §2, §3, §4

[3] = test system: genotype 1a (H77) wild type transient HCV replicon in Huh-7-derived cells; experiment: Transient-transfected HCV replicon EC50, genotype 1a wild type; settings: Hepatitis C virus, 72 h, read-out: EC50 1A WT
[4] = test system: genotype 1b (Con1) wild type transient HCV replicon in Huh-7-derived cells; experiment: Transient-transfected HCV replicon EC50, genotype 1b wild type; settings: Hepatitis C virus, 72 h, read-out: EC50 1B WT
[5] = test system: genotype 3a (S52) stable HCV replicon in Huh-7-derived cells; experiment: Stable subgenomic HCV replicon EC50, genotype 3a (Renilla luciferase); settings: Hepatitis C virus, 72 h, read-out: EC50 3A RLUC
Description: as §1, §2, §3, §4

[6] = test system: genotype 3a (S52) wild type transient HCV replicon in Huh-7-derived cells; experiment: Transient-transfected HCV replicon EC50, genotype 3a wild type; settings: Hepatitis C virus, 72 h, read-out: EC50 3A WT
[7] = test system: genotype 4a (ED43) stable HCV replicon in Huh-7-derived cells; experiment: Stable subgenomic HCV replicon EC50, genotype 4a (Renilla luciferase); settings: Hepatitis C virus, 72 h, read-out: EC50 4A RLUC
Description: as §1, §2, §3, §4

[8] = test system: genotype 1b NS3/4a protease inhibitor resistant variant D168A transient HCV replicon in Huh-7-derived cells; experiment: Transient-transfected HCV replicon EC50, genotype 1b D168A; settings: Hepatitis C virus, 72 h, read-out: EC50 1B D168A, transient-transfected replicon genotype 1b D168A resistant variant, 72 h
[9] = test system: genotype 2a (JFH-1) stable HCV replicon in Huh-7-derived cells; experiment: Stable subgenomic HCV replicon EC50, genotype 2a (Renilla luciferase); settings: Hepatitis C virus, stable replicon genotype 2a, 72 h, read-out: EC50 2A RLUC
Description: as §1, §2, §3, §4

[10] = test system: genotype 1a NS3/4a protease inhibitor resistant variant R155K transient HCV replicon in Huh-7-derived cells; experiment: Transient-transfected HCV replicon EC50, genotype 1a R155K; settings: Hepatitis C virus, 72 h, read-out: EC50 1A R155K, transient-transfected replicon genotype 1a R155K resistant variant, 72 h
[11] = transient-transfected replicon genotype 1a wild type
[12] = transient-transfected replicon genotype 1b wild type
[13] = transient-transfected replicon genotype 3a wild type

Compound	EC50 [1] [nM]	EC50 [2] [nM]	EC50 [3, 11] [nM]	EC50 [4, 12] [nM]	EC50 [5] [nM]	EC50 [6, 13] [nM]	EC50 [7] [nM]	EC50 [8] [nM]	EC50 [9] [nM]	EC50 [10] [nM]	EC50 [3] [nM]	EC50 [4] [nM]	EC50 [6] [nM]
CC[C@@H]1[C@@H]2CN(C(=O)[C@H](C(C)(C)C)NC(=O)O[C@@H]3C[C@H]3CCCCCc3nc4ccc(OC)cc4nc3O2)[C@@H]1C(=O)N[C@]1(C(=O)NS(=O)(=O)C2(C)CC2)C[C@H]1CC [Example 4, (1aR,5S,8S,9S,10R,22aR)-5-tert-butyl-9-ethyl-N-[(1R,2R)-2-ethyl-1-{[(1-methylcyclopropyl)sulfonyl]carbamoyl}cyclopropyl]-14-methoxy-3,6-dioxo-1,1a,3,4,5,6,9,10,18,19,20,21,22,22a-tetradecahydro-8H-7,10-methanocyclopropa[18,19][1,10,3,6]dioxadiazacyclononadecino[11,12-b]quinoxaline-8-carboxamide]	9.6	10.7	7.1	6.5	271	68	7.9	66	16	20	–	–	–
CC[C@@H]1[C@@H]2CN(C(=O)[C@H](C(C)(C)C)NC(=O)O[C@@H]3C[C@H]3CCCCC(F)(F)c3nc4ccc(OC)cc4nc3O2)[C@@H]1C(=O)N[C@]1(C(=O)NS(=O)(=O)C2CC2)C[C@H]1CC [Example 34, (1aR,5S,8S,9S,10R,22aR)-5-tert-butyl-N-{(1R,2R)-1-[(cyclopropylsulfonyl)carbamoyl]-2-ethylcyclopropyl}-9-ethyl-18,18-difluoro-14-methoxy-3,6-dioxo-1,1a,3,4,5,6,9,10,18,19,20,21,22,22a-tetradecahydro-8H-7,10-methanocyclopropa[18,19][1,10,3,6]dioxadiazacyclononadecino[11,12-b]quinoxaline-8-carboxamide]	13	12	15	9	322	46	9.7	64	18	18	–	–	–
CC[C@@H]1[C@@H]2CN(C(=O)[C@H](C(C)(C)C)NC(=O)O[C@@H]3C[C@H]3CCCCC(F)(F)c3nc4ccc(OC)cc4nc3O2)[C@@H]1C(=O)N[C@]1(C(=O)NS(=O)(=O)C2(C)CC2)C[C@H]1CC(F)F [Example 35, (1aR,5S,8S,9S,10R,22aR)-5-tert-butyl-N-[(1R,2S)-2-(2,2-difluoroethyl)-1-{[(1-methylcyclopropyl)sulfonyl]carbamoyl}cyclopropyl]-9-ethyl-18,18-difluoro-14-methoxy-3,6-dioxo-1,1a,3,4,5,6,9,10,18,19,20,21,22,22a-tetradecahydro-8H-7,10-methanocyclopropa[18,19][1,10,3,6]dioxadiazacyclononadecino[11,12-b]quinoxaline-8-carboxamide]	11	9.1	12	10	162	35	7.6	38	7.4	17	–	–	–
CC[C@@H]1[C@@H]2CN(C(=O)[C@H](C(C)(C)C)NC(=O)O[C@@H]3[C@H]4CC[C@H](C4)[C@H]3CCCCCc3nc4ccc(OC)cc4nc3O2)[C@@H]1C(=O)N[C@]1(C(=O)NS(=O)(=O)C2(C)CC2)C[C@H]1C(F)F [Example 37, (1R,4S,4aR,8S,11 S, 12S,13R,25aR)-8-tert-butyl-N-[(1R,2R)-2-(difluoromethyl)-1-{[(1-methylcyclopropyl)sulfonyl]carbamoyl}cyclopropyl]-12-ethyl-17-methoxy-6,9-dioxo-2,3,4,4a,6,7,8,9,12,13,21,22,23,24,25,25a-hexadecahydro-1H,11H-1,4:10,13-dimethanoquinoxalino[2,3-k][1,10,3,6]benzodioxadiazacyclononadecine-11-carboxamide]	22	24	29	22	575	69	15	159	16	51	–	–	–
CC[C@@H]1[C@@H]2CN(C(=O)[C@H](C(C)(C)C)NC(=O)O[C@]3(C)CCC[C@H]3CCCCCc3nc4ccc(OC)cc4nc3O2)[C@@H]1C(=O)N[C@]1(C(=O)NS(=O)(=O)C2CC2)C[C@H]1C(F)F [Example 40, (3aR,7S,10S,11S,12R,24aR)-7-tert-butyl-N-[(1R,2R)-1-[(cyclopropylsulfonyl)carbamoyl]-2-(difluoromethyl)cyclopropyl]-11-ethyl-16-methoxy-3a-methyl-5,8-dioxo-1,2,3,3a,5,6,7,8,11,12,20,21,22,23,24,24a-hexadecahydro-10H-9,12-methanocyclopenta[18,19][1,10,3,6]dioxadiazacyclononadecino[11,12-b]quinoxaline-10-carboxamide]	22	25	17	8.6	360	156	18	129	48	74	–	–	–
CC[C@@H]1[C@@H]2CN(C(=O)[C@H](C(C)(C)C)NC(=O)O[C@]3(C)CCC[C@H]3CCCCCc3nc4ccc(OC)cc4nc3O2)[C@@H]1C(=O)N[C@]1(C(=O)NS(=O)(=O)C2(C)CC2)C[C@H]1CC(F)F [Example 41, (3aR,7S,10S,11S,12R,24aR)-7-tert-butyl-N-[(1R,2S)-2-(2,2-difluoroethyl)-1-{[(1-methylcyclopropyl)sulfonyl]carbamoyl}cyclopropyl]-11-ethyl-16-methoxy-3a-methyl-5,8-dioxo-1,2,3,3a,5,6,7,8,11,12,20,21,22,23,24,24a-hexadecahydro-10H-9,12-methanocyclopenta[18,19][1,10,3,6]dioxadiazacyclononadecino[11,12-b]quinoxaline-10-carboxamide]	142	135	164	154	2610	539	135	715	106	505	–	–	–
C=C[C@@H]1C[C@]1(NC(=O)[C@@H]1[C@H](C)[C@@H]2CN1C(=O)[C@H](C(C)(C)C)NC(=O)O[C@@H]1C[C@H]1CCCCCc1nc3ccc(OC)cc3nc1O2)C(=O)NS(=O)(=O)C1CC1 [Example 48, (1aR,5S,8S,9S,10R,22aR)-5-tert-butyl-N-{(1R,2S)-1-[(cyclopropylsulfonyl)carbamoyl]-2-ethenylcyclopropyl}-14-methoxy-9-methyl-3,6-dioxo-1,1a,3,4,5,6,9,10,18,19,20,21,22,22a-tetradecahydro-8H-7,10-methanocyclopropa[18,19][1,10,3,6]dioxadiazacyclononadecino[11,12-b]quinoxaline-8-carboxamide]	1.8	2	–	–	73	–	2.2	6.5	9.7	4	1.7	1.1	13
